Test results from PubChem BioAssay AID248 (DTP/NCI, 2004).
Values joined by “and” are separate entries in the source; they are usually repeats but may differ in a detail not shown here. Identical values can stand only once. Inconclusive results and toxic doses are left out. Cut-off read from the data, not from the text of the source: active = T/C of 150% or more; inactive = T/C below 125%.

System: L1210 leukemia ip in BDF1 mice, survival T/C
Assay: NCI In Vivo Anticancer Drug Screen. Data for tumor model L1210 Leukemia (intraperitoneal) in B6D2F1 (BDF1) mice
Details: endpoint: mean survival time, higher = longer survival
Outline: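 Value reflects the ratio of survival in compound-treated mice to survival in vehicle-treated controls, with both groups carrying the same transplanted tumor.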

[1] = dose: 12.5 mg/kg/injection, schedule: Q04DX002 (ip), vehicle: Klucel (hydroxypropylcellulose) (HPC)
[2] = dose: 25.0 mg/kg/injection, schedule: Q04DX002 (ip), vehicle: Klucel (hydroxypropylcellulose) (HPC)
[3] = dose: 50.0 mg/kg/injection, schedule: Q04DX002 (ip), vehicle: Klucel (hydroxypropylcellulose) (HPC)
[4] = dose: 100.0 mg/kg/injection, schedule: Q04DX002 (ip), vehicle: saline
[5] = dose: 200.0 mg/kg/injection, schedule: Q04DX002 (ip), vehicle: saline
[6] = dose: 100.0 mg/kg/injection, schedule: Q04DX002 (ip), vehicle: saline with Tween-80
[7] = dose: 200.0 mg/kg/injection, schedule: Q04DX002 (ip), vehicle: saline with Tween-80
[8] = dose: 400.0 mg/kg/injection, schedule: Q04DX002 (ip), vehicle: saline with Tween-80
[9] = dose: 25.0 mg/kg/injection, schedule: Q01DX009 (ip), vehicle: Klucel (hydroxypropylcellulose) (HPC)
[10] = dose: 100.0 mg/kg/injection, schedule: Q04DX003 (ip), vehicle: Klucel (hydroxypropylcellulose) (HPC)
[11] = dose: 100.0 mg/kg/injection, schedule: Q01DX009 (ip), vehicle: saline with Tween-80
[12] = dose: 200.0 mg/kg/injection, schedule: Q01DX009 (ip), vehicle: saline with Tween-80
[13] = dose: 50.0 mg/kg/injection, schedule: Q01DX009 (ip), vehicle: saline
[14] = dose: 100.0 mg/kg/injection, schedule: Q01DX009 (ip), vehicle: saline
[15] = dose: 50.0 mg/kg/injection, schedule: Q01DX009 (ip), vehicle: saline with Tween-80
[16] = dose: 100.0 mg/kg/injection, schedule: Q04DX003 (ip), vehicle: saline with Tween-80
[17] = dose: 200.0 mg/kg/injection, schedule: Q04DX003 (ip), vehicle: saline with Tween-80
[18] = dose: 100.0 mg/kg/injection, schedule: Q01DX001 (ip), vehicle: saline
[19] = dose: 200.0 mg/kg/injection, schedule: Q01DX001 (ip), vehicle: saline
[20] = dose: 400.0 mg/kg/injection, schedule: Q01DX001 (ip), vehicle: saline
[21] = dose: 100.0 mg/kg/injection, schedule: Q04DX003 (ip), vehicle: saline

Measured: T/C

O=[N+]([O-])/C=C/c1c(O)c(Cl)cc(Cl)c1Cl
inactive: [1] 92 % of control | [2] 92 % of control | [3] 95 % of control

CC1N=C1c1ccccc1 (stereo not given)
inactive: [4] 102 % of control | [5] 115 % of control | dose: 400.0 mg/kg/injection, schedule: Q04DX002 (ip), vehicle: saline 105 % of control

O=C(O)C(O)c1ccc([N+](=O)[O-])cc1 (stereo not given)
inactive: dose: 75.0 mg/kg/injection, schedule: Q01DX001 (ip), vehicle: saline 92 % of control | [6] 95 % of control | dose: 150.0 mg/kg/injection, schedule: Q01DX001 (ip), vehicle: saline 94 % of control | [7] 103 % of control | dose: 300.0 mg/kg/injection, schedule: Q01DX001 (ip), vehicle: saline 90 % of control | [8] 100 % of control

Cc1ccc(NCC(O)CN2CCCC2)cc1 (stereo not given)
inactive: dose: 6.0 mg/kg/injection, schedule: Q01DX009 (ip), vehicle: Klucel (hydroxypropylcellulose) (HPC) 94 % of control | dose: 12.0 mg/kg/injection, schedule: Q01DX009 (ip), vehicle: Klucel (hydroxypropylcellulose) (HPC) 92 % of control | dose: 12.5 mg/kg/injection, schedule: Q01DX001 (ip), vehicle: Klucel (hydroxypropylcellulose) (HPC) 93 % of control | dose: 12.5 mg/kg/injection, schedule: Q04DX003 (ip), vehicle: Klucel (hydroxypropylcellulose) (HPC) 104 % of control | dose: 25.0 mg/kg/injection, schedule: Q01DX001 (ip), vehicle: Klucel (hydroxypropylcellulose) (HPC) 93 % of control | [9] 96 % of control and 100 % of control | dose: 25.0 mg/kg/injection, schedule: Q04DX003 (ip), vehicle: Klucel (hydroxypropylcellulose) (HPC) 96 % of control | dose: 50.0 mg/kg/injection, schedule: Q01DX001 (ip), vehicle: Klucel (hydroxypropylcellulose) (HPC) 93 % of control

Nc1nc2nc(N=Nc3ccc(S(=O)(=O)N(CCCl)CCCl)cc3)[nH]c2c(=O)[nH]1
inactive: [10] 93 % of control | dose: 200.0 mg/kg/injection, schedule: Q04DX003 (ip), vehicle: Klucel (hydroxypropylcellulose) (HPC) 87 % of control | dose: 400.0 mg/kg/injection, schedule: Q04DX003 (ip), vehicle: Klucel (hydroxypropylcellulose) (HPC) 96 % of control

NC(=S)c1ccc(Cl)cc1
inactive: [11] 95 % of control | [6] 101 % of control | [12] 110 % of control | [7] 97 % of control | [8] 97 % of control

N#CCC(=O)N1CCc2ccccc2C1
inactive: [11] 97 % of control | [6] 94 % of control | [12] 97 % of control | [7] 105 % of control | [8] 101 % of control

O=C(Cc1ccccc1)NCCO
inactive: [13] 103 % of control | [14] 98 % of control | [4] 109 % of control | dose: 200.0 mg/kg/injection, schedule: Q01DX009 (ip), vehicle: saline 101 % of control | [5] 109 % of control | dose: 400.0 mg/kg/injection, schedule: Q01DX009 (ip), vehicle: saline 97 % of control

OCCCCCCCCCCC[n+]1ccccc1Cc1ccccc1
inactive: dose: 75.0 mg/kg/injection, schedule: Q01DX001 (ip), vehicle: Klucel (hydroxypropylcellulose) (HPC) 92 % of control

CCSc1ncnc2nc[nH]c12
inactive: dose: 75.0 mg/kg/injection, schedule: Q01DX001 (ip), vehicle: acetone 105 % of control | dose: 150.0 mg/kg/injection, schedule: Q01DX001 (ip), vehicle: acetone 105 % of control | dose: 300.0 mg/kg/injection, schedule: Q01DX001 (ip), vehicle: acetone 105 % of control

O=C(CC(O)(C(F)(F)Cl)C(F)(F)Cl)c1ccco1
inactive: [15] 98 % of control | [11] 98 % of control | [16] 103 % of control | [12] 95 % of control | [17] 90 % of control

O=CO.[Cr]
inactive: [18] 102 % of control | [19] 98 % of control | [20] 98 % of control

Cc1ncc2c(=O)n(-c3ccc(Br)cc3)[nH]c2n1
inactive: dose: 100.0 mg/kg/injection, schedule: Q04DX003 (ip), vehicle: gum acacia 96 % of control | dose: 200.0 mg/kg/injection, schedule: Q04DX003 (ip), vehicle: gum acacia 97 % of control | dose: 400.0 mg/kg/injection, schedule: Q04DX003 (ip), vehicle: gum acacia 92 % of control

CCCCN(CCCC)CCCNC(=O)OCC
inactive: [9] 92 % of control | dose: 50.0 mg/kg/injection, schedule: Q01DX009 (ip), vehicle: Klucel (hydroxypropylcellulose) (HPC) 94 % of control | dose: 50.0 mg/kg/injection, schedule: Q04DX003 (ip), vehicle: Klucel (hydroxypropylcellulose) (HPC) 100 % of control | dose: 100.0 mg/kg/injection, schedule: Q01DX009 (ip), vehicle: Klucel (hydroxypropylcellulose) (HPC) 106 % of control and 87 % of control | [10] 103 % of control

CCCCCC1(C)OCC(CCl)O1 (stereo not given)
inactive: dose: 222.0 mg/kg/injection, schedule: Q01DX Z (ip), vehicle: saline 107 % of control | dose: 333.0 mg/kg/injection, schedule: Q01DX Z (ip), vehicle: saline 97 % of control | dose: 500.0 mg/kg/injection, schedule: Q01DX Z (ip), vehicle: saline 89 % of control

O=C(COc1ccc(Cl)c(Cl)c1)NCc1ccc[n+](Cc2ccc(Cl)c(S(=O)(=O)F)c2)c1
inactive: dose: 25.0 mg/kg/injection, schedule: Q04DX003 (ip), vehicle: saline 114 % of control | dose: 50.0 mg/kg/injection, schedule: Q04DX003 (ip), vehicle: saline 118 % of control | [21] 100 % of control and 112 % of control

CC(=O)C(C)(CCC#N)CCC#N
inactive: [15] 105 % of control | [11] 91 % of control | [16] 108 % of control | [17] 104 % of control

CCN1CCC(CCOC)(CN2c3ccccc3Sc3ccc(Cl)cc32)C1 (stereo not given)
inactive: [21] 89 % of control

N#CC1(N(O)C(=O)Nc2ccccc2)CCCCC1
inactive: [18] 93 % of control | [19] 96 % of control | [20] 91 % of control

CCN(CC)CCCNc1ncnc2c1C(c1ccccc1)c1ccccc1-2 (stereo not given)
inactive: dose: 5.0 mg/kg/injection, schedule: Q01DX001 (ip), vehicle: saline 98 % of control | dose: 10.0 mg/kg/injection, schedule: Q01DX001 (ip), vehicle: saline 96 % of control | dose: 20.0 mg/kg/injection, schedule: Q01DX001 (ip), vehicle: saline 93 % of control | dose: 40.0 mg/kg/injection, schedule: Q01DX001 (ip), vehicle: saline 93 % of control

CCCC(OC(C[N+](=O)[O-])C(Cl)(Cl)Cl)c1ccccc1 (stereo not given)
inactive: [11] 97 % of control | [16] 98 % of control | [12] 101 % of control | [17] 96 % of control | dose: 400.0 mg/kg/injection, schedule: Q01DX009 (ip), vehicle: saline with Tween-80 107 % of control | dose: 400.0 mg/kg/injection, schedule: Q04DX003 (ip), vehicle: saline with Tween-80 96 % of control

CCCCN(CCCC)c1ccc(C(=O)O)cc1
inactive: [11] 100 % of control | [16] 100 % of control | [12] 102 % of control | [17] 98 % of control

COc1cc2cc[n+](C)cc2cc1OC
inactive: [13] 111 % of control | [14] 108 % of control | [21] 104 % of control | dose: 200.0 mg/kg/injection, schedule: Q04DX003 (ip), vehicle: saline 107 % of control

O=C1/C(=C\c2ccccc2Cl)N2CCC1CC2
inactive: dose: 100.0 mg/kg/injection, schedule: Q01DX001 (ip), vehicle: saline with Tween-80 94 % of control | dose: 200.0 mg/kg/injection, schedule: Q01DX001 (ip), vehicle: saline with Tween-80 109 % of control | dose: 400.0 mg/kg/injection, schedule: Q01DX001 (ip), vehicle: saline with Tween-80 93 % of control

COc1cc2c(cc1OC)N(C(C)=O)Cc1cccn1C2
inactive: [1] 94 % of control | [2] 94 % of control | [3] 94 % of control

COc1ccc(F)cc1CC(N)=O
inactive: dose: 100.0 mg/kg/injection, schedule: Q04DX002 (ip), vehicle: Klucel (hydroxypropylcellulose) (HPC) 101 % of control | dose: 200.0 mg/kg/injection, schedule: Q04DX002 (ip), vehicle: Klucel (hydroxypropylcellulose) (HPC) 97 % of control | dose: 400.0 mg/kg/injection, schedule: Q04DX002 (ip), vehicle: Klucel (hydroxypropylcellulose) (HPC) 104 % of control
